# Measured values published in patent US11364275B2, “Linear lipopeptide paenipeptins and methods of using the same” (priority 2017, dated 2022).
# Read-outs that look alike come from different tables or passages of the source. Where a SMILES comes first, the peptide text is derived from it. [ ]: non-standard residue; d: D form. The star is where a group is joined. Dab = NCC[C@H](N)C(=O)O; Cbz = O=C(OCc1ccccc1)*
# How the values were obtained:
# [1] = tested on: Escherichia coli ATCC 25922; assay type: cell-based; conditions: E. coli ATCC 25922; TSB
# Description: (§2) The minimum inhibitory concentration (MIC) of paenipeptin analogues was determined using the broth microdilution method (Wirker, M. A. Methods for Dilution Antimicrobial Susceptibility Tests for Bacteria that Grow Aerobically: Approved Standard M07-A8; Clinical and Laboratory Standards Institute, Wayne, Pa., 2009). Seven reference strains (Acinetobacter baumannii ATCC 19606, Escherichia coli ATCC 25922, Klebsiella pneumoniae ATCC 13883, Pseudomonas aeruginosa ATCC 27853, Enterococcus faecium ATCC 19434, Staphylococcus aureus ATCC 29213 and methicillin-resistant S. aureus ATCC 43300) were subjected to MIC testing.
# (§3) Paenipeptin analogues were two-fold diluted in tryptic soy broth (TSB; Becton Dickinson) and mixed with an equal volume of bacterial suspensions in TSB containing approximately 1.5×10^5 colony-forming units (CFU)/mL in a clear UV-sterilized 96-well microtiter plate (NBS, Corning Inc., Corning, N.Y.). […] The microtiter plate was incubated at 37° C. for 18-20 h.
# [2] = tested on: Staphylococcus aureus ATCC 29213; assay type: cell-based; conditions: S. aureus ATCC 29213; TSB
# Description: as §2, §3
# [3] = tested on: A. baumannii FDA-CDC AR 0063; experiment: Time-kill kinetics in 95% human serum, alone and combined; assay type: cell-based, Acinetobacter baumannii; conditions: A. baumannii AR 0063, 24 h
# Description: (§1) Bacterial viable counts were determined at 0, 2, 4, 6, and 24 h after antimicrobial treatment. Bacterial surviving counts at 24 h endpoints were subjected to analysis of variance (ANOVA) followed by Tukey's honest significant difference (HSD) tests using SPSS Statistics (version 24; SPSS, Inc., Chicago, Ill., USA).
# To further test the therapeutic potential of paenipeptin analogues, the time-kill kinetics assays of paenipeptins alone or in combination with other antibiotics were performed in 95% human serum in vitro. Without antimicrobial treatment, the population of A. baumannii FDA-CDC AR 0063 increased from 5.8 log to 9.3 log within 24 h. […] (FIG. 7A).
# [4] = tested on: K. pneumoniae FDA-CDC AR0097; experiment: as above; assay type: cell-based, Klebsiella pneumoniae
# Description: as §1
# To further test the therapeutic potential of paenipeptin analogues, the time-kill kinetics assays of paenipeptins alone or in combination with other antibiotics were performed in 95% human serum in vitro.
# [5] = tested on: K. pneumoniae FDA-CDC AR 0097; conditions: K. pneumoniae AR 0097
smiles,measurement,setting,value
CC[C@H](C)[C@H](NC(=O)[C@H](CCN)NC(=O)OCc1ccccc1)C(=O)N[C@@H](CCN)C(=O)N[C@H](Cc1ccccc1)C(=O)N[C@@H](CC(C)C)C(=O)N[C@@H](CCN)C(=O)N[C@@H](C(=O)N[C@@H](CC(C)C)C(=O)N[C@@H](CO)C(N)=O)C(C)C [Analogue 15] (Cbz-[Dab]I[Dab][dF]L[Dab][dV]LS-NH2),MIC,[1],8 to 16 µg/mL
same,MIC,[2],>32 µg/mL
same,"decrease of bacterial population, analogue 4 μg/ml in combination with rifampicin 4 μg/ml",[3],2.7 log
same,"log reduction, analogue 4 μg/ml in combination with clarithromycin 4 μg/ml",[3],0.7 log
same,"log reduction, analogue 4 μg/ml in combination with rifampicin 4 μg/ml",[4]; 24 h,4.6 log
same,"log inactivation, single agent at 4 μg/ml",[4]; within 24 h,didn't show bactericidal activity
same,MIC of clarithromycin at the presence of PMBN or paenipeptin analogue at 4 μg/ml,[5],0.0078-0.0156 μg/ml
same,MIC of rifampicin at the presence of PMBN or paenipeptin analogue at 4 μg/ml,[5],0.0019-0.0039 μg/ml
same,MIC alone,[5]; 10% FBS,16 to 32 µg/mL
same,MIC alone,[5]; No FBS,>32 µg/mL
